For assay [1], the target named is T1, Thromboxane A2 receptor (Homo sapiens, UniProt P21731).
T1 sequence (P21731 whole entry): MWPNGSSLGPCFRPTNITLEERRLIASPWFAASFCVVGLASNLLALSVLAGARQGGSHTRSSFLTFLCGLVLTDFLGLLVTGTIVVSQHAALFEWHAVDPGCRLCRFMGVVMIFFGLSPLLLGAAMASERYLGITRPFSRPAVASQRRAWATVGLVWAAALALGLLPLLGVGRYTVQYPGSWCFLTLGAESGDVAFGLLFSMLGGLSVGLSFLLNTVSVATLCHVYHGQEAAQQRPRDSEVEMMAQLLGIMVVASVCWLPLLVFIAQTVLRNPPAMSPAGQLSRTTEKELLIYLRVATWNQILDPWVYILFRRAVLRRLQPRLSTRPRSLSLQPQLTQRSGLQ
The class given is functional, cell-based.

Assay [2] has as its target Sodium-dependent dopamine transporter (Homo sapiens, UniProt Q01959).
Assay [3] has as its target Prostaglandin G/H synthase 1 (Homo sapiens, UniProt P23219). Format: functional.
The target in assay [4] is Prothrombin (Homo sapiens, UniProt P00734). The class given is functional.
In assay [5] the target is Sodium-dependent noradrenaline transporter (Homo sapiens, UniProt P23975).
The target in assay [6] is T2, Alpha-2A adrenergic receptor (Homo sapiens, UniProt P08913).
T2 sequence (P08913 whole entry): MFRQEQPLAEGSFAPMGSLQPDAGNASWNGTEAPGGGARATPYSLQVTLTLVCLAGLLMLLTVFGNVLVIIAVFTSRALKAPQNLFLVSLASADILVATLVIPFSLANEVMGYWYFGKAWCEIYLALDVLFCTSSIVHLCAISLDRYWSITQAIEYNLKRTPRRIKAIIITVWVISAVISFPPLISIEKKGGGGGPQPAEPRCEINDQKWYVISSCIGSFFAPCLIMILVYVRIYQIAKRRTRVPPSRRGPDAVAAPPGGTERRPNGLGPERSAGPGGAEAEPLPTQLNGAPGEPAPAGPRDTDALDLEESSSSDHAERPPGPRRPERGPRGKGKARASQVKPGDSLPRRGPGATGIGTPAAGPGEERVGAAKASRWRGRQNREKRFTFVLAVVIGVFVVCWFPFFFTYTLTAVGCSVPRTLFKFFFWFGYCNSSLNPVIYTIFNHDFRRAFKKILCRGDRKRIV

Assay [7] deals with T3, Amine oxidase [flavin-containing] A (Homo sapiens, UniProt P21397).
T3 sequence (P21397 whole entry): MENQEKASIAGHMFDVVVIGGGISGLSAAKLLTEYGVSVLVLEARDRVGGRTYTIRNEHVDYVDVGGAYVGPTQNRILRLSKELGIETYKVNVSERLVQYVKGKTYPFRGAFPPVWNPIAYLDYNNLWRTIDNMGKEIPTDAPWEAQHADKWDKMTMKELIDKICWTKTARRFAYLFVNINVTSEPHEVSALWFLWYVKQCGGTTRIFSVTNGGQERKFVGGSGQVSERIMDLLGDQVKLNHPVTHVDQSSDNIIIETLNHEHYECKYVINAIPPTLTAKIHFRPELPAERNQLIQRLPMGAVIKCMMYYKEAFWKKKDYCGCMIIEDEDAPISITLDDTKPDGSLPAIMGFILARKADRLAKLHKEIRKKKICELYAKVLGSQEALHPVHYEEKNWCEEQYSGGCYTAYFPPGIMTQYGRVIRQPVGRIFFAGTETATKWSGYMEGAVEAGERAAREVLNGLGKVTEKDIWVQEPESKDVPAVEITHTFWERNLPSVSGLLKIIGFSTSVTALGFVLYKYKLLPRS
Format: functional.

Assay [8] concerns the target T4, 5-hydroxytryptamine receptor 1A (Homo sapiens, UniProt P08908).
T4 sequence (P08908 whole entry): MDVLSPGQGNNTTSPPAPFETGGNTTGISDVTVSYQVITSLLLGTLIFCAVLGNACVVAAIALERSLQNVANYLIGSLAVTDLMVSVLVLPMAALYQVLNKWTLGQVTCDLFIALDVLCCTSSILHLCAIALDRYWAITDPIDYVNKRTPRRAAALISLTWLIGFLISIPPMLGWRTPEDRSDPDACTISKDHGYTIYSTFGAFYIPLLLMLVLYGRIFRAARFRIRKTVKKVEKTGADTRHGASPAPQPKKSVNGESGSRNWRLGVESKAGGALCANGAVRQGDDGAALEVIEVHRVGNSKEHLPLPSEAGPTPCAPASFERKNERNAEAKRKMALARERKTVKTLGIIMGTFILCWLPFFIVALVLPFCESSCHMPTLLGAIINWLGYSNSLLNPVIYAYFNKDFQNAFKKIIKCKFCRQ

The target in assay [9] is D(1A) dopamine receptor (Homo sapiens, UniProt P21728).
Assay [10] has as its target 3',5'-cyclic-AMP phosphodiesterase 4A (Homo sapiens, UniProt P27815). Format: functional.
For assay [11], the target named is cGMP-inhibited 3',5'-cyclic phosphodiesterase 3A (Homo sapiens, UniProt Q14432). Format: functional.
Assay [12] has as its target 5-hydroxytryptamine receptor 2B (Homo sapiens, UniProt P41595). The class given is functional, cell-based.
Assay [13] deals with T5, Muscarinic acetylcholine receptor M2 (Homo sapiens, UniProt P08172).
T5 sequence (P08172 whole entry): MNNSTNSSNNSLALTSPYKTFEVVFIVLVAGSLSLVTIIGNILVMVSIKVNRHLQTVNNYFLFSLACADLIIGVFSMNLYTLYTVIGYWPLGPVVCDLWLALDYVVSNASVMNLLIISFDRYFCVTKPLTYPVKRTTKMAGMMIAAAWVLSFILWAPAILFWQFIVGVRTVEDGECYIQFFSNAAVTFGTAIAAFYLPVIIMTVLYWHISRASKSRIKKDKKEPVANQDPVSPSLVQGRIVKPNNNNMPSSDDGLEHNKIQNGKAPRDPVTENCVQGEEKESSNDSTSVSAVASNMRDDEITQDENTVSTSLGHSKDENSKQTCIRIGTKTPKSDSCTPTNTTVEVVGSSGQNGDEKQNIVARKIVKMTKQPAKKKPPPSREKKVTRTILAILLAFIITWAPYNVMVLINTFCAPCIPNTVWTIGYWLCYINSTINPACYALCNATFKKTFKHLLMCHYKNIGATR

Assay [14] has as its target T1, Thromboxane A2 receptor. Format: functional, cell-based. The source holds these as a separate data set.
The target in assay [15] is D(3) dopamine receptor (Homo sapiens, UniProt P35462).

*1 amine or outer side, *2 acyl side, *3 side chain or, on linkers, in order; H or OH if unused. Where a SMILES comes first, the peptide text is derived from it. Bridges are numbered along the chain shown (N, C = ends). [ ]: non-standard residue; d: D form. The star is where a group is joined. hTyr(3S-OH,4S-OH,3'-OSO3H) = N[C@H](C(=O)O)[C@H](O)[C@@H](O)c1ccc(O)c(OS(=O)(=O)O)c1; Orn(4R-OH,5R-OH) = O=C([C@H](C[C@@H](O)[C@@H](O)N[*:3])N[*:1])[*:2]; Pro(3S-OH,4S-Me) = C[C@H]1CN[C@H](C(=O)O)[C@H]1O; X1 = CCCCCOc1ccc(-c2cc(-c3ccc(C(=O)*)cc3)no2)cc1; Gln(3R-OH) = NC(=O)C[C@@H](O)[C@H](N)C(=O)O; Hyp = O=C(O)[C@@H]1C[C@@H](O)CN1 Some results are limits rather than exact numbers.

As a reminder, the AC50 is the concentration at which the activity in the assay is half-maximal. Read a high AC50 as weaker potency.
Also: assay procedure not described here.

Sequence of D(3) dopamine receptor (P35462 whole entry): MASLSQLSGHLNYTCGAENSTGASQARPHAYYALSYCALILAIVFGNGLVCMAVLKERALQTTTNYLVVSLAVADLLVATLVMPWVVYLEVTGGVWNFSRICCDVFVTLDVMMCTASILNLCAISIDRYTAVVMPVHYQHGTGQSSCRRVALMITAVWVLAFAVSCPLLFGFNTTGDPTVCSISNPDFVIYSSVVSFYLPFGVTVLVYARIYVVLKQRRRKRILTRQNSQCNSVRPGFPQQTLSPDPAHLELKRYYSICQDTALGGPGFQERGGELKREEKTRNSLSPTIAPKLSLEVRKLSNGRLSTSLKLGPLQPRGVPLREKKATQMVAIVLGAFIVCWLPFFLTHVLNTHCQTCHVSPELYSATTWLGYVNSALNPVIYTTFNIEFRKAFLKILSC
Sequence of 5-hydroxytryptamine receptor 2B (P41595 whole entry): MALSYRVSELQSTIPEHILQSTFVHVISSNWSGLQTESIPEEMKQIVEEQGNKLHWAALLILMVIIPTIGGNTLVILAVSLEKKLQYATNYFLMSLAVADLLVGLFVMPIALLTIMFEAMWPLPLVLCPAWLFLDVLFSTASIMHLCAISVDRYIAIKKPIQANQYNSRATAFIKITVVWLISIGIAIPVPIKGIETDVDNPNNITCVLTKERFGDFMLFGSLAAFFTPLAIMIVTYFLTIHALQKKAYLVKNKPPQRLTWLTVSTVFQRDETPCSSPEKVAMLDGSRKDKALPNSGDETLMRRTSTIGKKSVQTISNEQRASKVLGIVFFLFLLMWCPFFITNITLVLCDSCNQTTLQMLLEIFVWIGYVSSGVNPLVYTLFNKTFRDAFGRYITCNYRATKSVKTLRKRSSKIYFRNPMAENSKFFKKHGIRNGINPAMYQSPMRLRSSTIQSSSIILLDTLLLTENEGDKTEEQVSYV
Sequence of Sodium-dependent dopamine transporter (Q01959 whole entry): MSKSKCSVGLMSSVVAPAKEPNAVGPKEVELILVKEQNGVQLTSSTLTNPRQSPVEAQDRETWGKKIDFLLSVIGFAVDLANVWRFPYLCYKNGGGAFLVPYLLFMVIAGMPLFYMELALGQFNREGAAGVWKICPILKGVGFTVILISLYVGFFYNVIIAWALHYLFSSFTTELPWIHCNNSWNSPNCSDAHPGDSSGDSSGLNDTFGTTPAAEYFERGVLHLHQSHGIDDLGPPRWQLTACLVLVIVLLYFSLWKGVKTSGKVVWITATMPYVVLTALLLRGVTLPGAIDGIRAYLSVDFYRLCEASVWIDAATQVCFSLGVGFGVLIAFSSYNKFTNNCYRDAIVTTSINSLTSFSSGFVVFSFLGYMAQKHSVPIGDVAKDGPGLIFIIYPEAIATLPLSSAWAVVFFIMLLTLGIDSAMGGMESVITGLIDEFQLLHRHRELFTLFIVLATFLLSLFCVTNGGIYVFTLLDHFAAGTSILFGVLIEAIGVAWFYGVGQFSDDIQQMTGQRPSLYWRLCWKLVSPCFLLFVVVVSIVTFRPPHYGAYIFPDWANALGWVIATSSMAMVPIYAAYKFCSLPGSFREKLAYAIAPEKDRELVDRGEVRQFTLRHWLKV
Sequence of Prostaglandin G/H synthase 1 (P23219 whole entry): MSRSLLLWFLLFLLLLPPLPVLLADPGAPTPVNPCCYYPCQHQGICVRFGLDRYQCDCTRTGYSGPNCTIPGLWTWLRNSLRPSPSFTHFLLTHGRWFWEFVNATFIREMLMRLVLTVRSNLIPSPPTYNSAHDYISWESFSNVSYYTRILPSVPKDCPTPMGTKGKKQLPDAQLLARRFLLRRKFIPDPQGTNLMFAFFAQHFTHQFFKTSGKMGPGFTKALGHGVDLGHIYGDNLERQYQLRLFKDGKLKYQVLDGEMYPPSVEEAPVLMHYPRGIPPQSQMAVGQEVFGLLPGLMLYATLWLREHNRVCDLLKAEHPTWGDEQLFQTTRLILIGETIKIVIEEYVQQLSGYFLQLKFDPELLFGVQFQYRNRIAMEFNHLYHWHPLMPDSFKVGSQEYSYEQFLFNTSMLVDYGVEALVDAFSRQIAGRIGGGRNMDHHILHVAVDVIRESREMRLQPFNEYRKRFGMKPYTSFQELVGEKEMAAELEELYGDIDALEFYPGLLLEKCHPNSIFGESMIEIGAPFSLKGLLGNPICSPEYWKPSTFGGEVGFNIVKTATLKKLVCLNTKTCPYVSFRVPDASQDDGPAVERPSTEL
Sequence of Sodium-dependent noradrenaline transporter (P23975 whole entry): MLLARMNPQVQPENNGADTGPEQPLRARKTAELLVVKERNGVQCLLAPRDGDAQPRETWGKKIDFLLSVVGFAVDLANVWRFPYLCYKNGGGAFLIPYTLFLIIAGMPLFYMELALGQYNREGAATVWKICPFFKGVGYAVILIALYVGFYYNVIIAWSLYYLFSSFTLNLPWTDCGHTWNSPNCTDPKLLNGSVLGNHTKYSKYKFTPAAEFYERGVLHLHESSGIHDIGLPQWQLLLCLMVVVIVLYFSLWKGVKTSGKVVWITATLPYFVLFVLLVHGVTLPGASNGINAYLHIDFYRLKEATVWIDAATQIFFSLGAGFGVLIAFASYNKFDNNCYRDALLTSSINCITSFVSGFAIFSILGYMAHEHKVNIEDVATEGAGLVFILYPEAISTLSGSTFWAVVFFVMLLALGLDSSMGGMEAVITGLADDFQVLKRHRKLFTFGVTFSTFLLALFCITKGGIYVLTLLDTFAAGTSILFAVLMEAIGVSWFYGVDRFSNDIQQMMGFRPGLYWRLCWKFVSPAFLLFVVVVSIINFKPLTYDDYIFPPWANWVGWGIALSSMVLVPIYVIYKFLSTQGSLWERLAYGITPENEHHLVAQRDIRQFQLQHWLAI
Sequence of D(1A) dopamine receptor (P21728 whole entry): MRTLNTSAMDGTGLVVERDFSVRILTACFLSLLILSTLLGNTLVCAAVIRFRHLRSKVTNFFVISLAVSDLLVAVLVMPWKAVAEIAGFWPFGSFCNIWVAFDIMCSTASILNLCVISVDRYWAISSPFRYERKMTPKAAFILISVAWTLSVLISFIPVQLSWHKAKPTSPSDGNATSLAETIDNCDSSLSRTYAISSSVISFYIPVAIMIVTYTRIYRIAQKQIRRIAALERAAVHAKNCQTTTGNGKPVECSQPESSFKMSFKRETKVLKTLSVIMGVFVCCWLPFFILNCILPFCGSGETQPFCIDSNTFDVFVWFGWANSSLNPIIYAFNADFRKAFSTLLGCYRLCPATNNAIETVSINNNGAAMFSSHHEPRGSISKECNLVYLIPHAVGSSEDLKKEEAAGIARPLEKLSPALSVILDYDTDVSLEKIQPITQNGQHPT
Sequence of 3',5'-cyclic-AMP phosphodiesterase 4A (P27815 whole entry): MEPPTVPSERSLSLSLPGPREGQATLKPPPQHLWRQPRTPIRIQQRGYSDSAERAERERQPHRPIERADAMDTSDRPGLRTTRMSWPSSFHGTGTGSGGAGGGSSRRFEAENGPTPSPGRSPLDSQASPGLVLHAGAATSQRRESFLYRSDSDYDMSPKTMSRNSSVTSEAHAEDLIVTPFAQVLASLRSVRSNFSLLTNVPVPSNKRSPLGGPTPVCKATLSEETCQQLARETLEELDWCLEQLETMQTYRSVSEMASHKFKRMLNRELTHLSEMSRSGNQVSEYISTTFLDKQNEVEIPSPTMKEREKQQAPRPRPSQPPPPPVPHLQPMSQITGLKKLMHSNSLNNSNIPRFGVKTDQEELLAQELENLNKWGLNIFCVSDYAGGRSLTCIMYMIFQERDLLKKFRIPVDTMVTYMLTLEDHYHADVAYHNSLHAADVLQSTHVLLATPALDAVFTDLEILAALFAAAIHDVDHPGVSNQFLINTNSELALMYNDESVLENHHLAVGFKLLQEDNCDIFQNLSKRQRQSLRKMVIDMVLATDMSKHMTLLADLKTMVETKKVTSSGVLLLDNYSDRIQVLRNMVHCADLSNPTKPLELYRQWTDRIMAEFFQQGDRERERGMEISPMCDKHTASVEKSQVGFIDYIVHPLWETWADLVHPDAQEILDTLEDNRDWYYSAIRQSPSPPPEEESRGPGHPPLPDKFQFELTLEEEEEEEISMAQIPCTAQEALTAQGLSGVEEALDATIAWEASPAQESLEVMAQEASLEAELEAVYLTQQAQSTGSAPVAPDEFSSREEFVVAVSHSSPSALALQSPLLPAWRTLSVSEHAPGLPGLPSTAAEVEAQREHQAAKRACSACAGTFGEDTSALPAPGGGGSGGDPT

With `Cc1cc2c(OCC(O)CNC(C)C)cccc2[nH]1` (stereo not given) [MEPINDOLOL], the AC50 is more than 30 µM in assay [1]; more than 30 µM in [2]; 10.9 µM in [3]; more than 30 µM in assay [4]; 5.31 µM in assay [5]; 12.3 µM in [6]. The AC50 in assay [7] was more than 30 µM; in assay [8], 0.0041 µM; in [9], more than 30 µM; in assay [10], more than 30 µM; in assay [11], more than 30 µM; in assay [12], more than 30 µM. Further, the results for the AC50 in assay [13], in assay [14] and in [15] were more than 30 µM, more than 30 µM and 19.9 µM, respectively.
`CCCCCOc1ccc(-c2cc(-c3ccc(C(=O)N[C@H]4C[C@@H](O)[C@@H](O)NC(=O)[C@@H]5[C@@H](O)[C@@H](C)CN5C(=O)[C@H]([C@H](O)CC(N)=O)NC(=O)[C@H]([C@H](O)[C@@H](O)c5ccc(O)c(OS(=O)(=O)O)c5)NC(=O)[C@@H]5C[C@@H](O)CN5C(=O)[C@H]([C@@H](C)O)NC4=O)cc3)no2)cc1` [MICAFUNGIN] (X1-[Orn(4R-OH,5R-OH)]T[Hyp][hTyr(3S-OH,4S-OH,3'-OSO3H)][Gln(3R-OH)][Pro(3S-OH,4S-Me)]; lactam 1-C): the AC50 in [1] is more than 30 µM; in [2], 21.7 µM; in assay [3], more than 30 µM; in [4], more than 30 µM; in [5], 14.6 µM; in assay [6], more than 30 µM. The AC50 in [7] was more than 30 µM; in assay [8], more than 30 µM; in assay [9], more than 30 µM; in [10], 29.5 µM; in assay [11], more than 30 µM; in assay [12] it was more than 30 µM. Also, the AC50 in assay [13] is more than 30 µM; in [14] it was 7.12 µM; in assay [15] it was more than 30 µM.
For the compound `CCOc1cc(N)c(Cl)cc1C(=O)NCC1CN(Cc2ccc(F)cc2)CCO1` (stereo not given) [MOSAPRIDE], the AC50 in assay [1] is more than 30 µM; in assay [2], more than 30 µM; in assay [3] it was more than 30 µM; in assay [4], more than 30 µM; in assay [5], more than 30 µM; in [6], 3.01 µM. The AC50 in assay [7] is more than 30 µM; in assay [8], 5.18 µM; in assay [9] it was more than 30 µM; in assay [10], more than 30 µM; in [11], more than 30 µM; in assay [12] it was more than 30 µM. Besides, the AC50 in assay [13] is more than 30 µM; in [14], more than 30 µM; in [15], 6.86 µM.
Turning to `CN1CCC[C@H]1c1cccnc1` [NICOTINE], the AC50 in assay [1], in assay [2], in assay [3], in assay [4], in assay [5] and in assay [6] was more than 30 µM throughout. Also, the AC50 in [7], in assay [8], in assay [9], in assay [10], in assay [11] and in [12] was more than 30 µM in each case. For the same compound, the AC50 in assay [13], in assay [14] and in assay [15] was more than 30 µM throughout.
`C#C[C@]1(O)CC[C@H]2[C@@H]3CCC4=C(CCC(=O)C4)[C@H]3CC[C@@]21C` [NORETHYNODREL]: the AC50 in [1], in assay [2], in [3], in [4], in assay [5] and in assay [6] was more than 30 µM each time. Also, the AC50 in assay [7] is more than 30 µM; in assay [8], more than 30 µM; in assay [9], more than 30 µM; in assay [10] it was more than 30 µM; in assay [11], 23.4 µM; in assay [12], more than 30 µM. The values for the AC50 in assay [13], in [14] and in assay [15] were more than 30 µM, 24.2 µM and more than 30 µM, respectively.
On to `CN(C)c1cc(CNCC(C)(C)C)c(O)c2c1C[C@H]1C[C@H]3[C@H](N(C)C)C(O)=C(C(N)=O)C(=O)[C@@]3(O)C(O)=C1C2=O` [OMADACYCLINE], for which the AC50 in assay [1] was more than 30 µM; in assay [2], more than 30 µM; in assay [3], 0.16 µM; in [4], more than 30 µM; in assay [5] it was more than 30 µM; in assay [6] it was more than 30 µM. In addition, the AC50 in assay [7], in assay [8], in [9], in assay [10], in assay [11] and in assay [12] was more than 30 µM each time. The values for the AC50 in assay [13], in [14] and in [15] were 9.2 µM, more than 10 µM and more than 30 µM, respectively.
`O=C1[C@H]2CCCC[C@H]2C(=O)N1CCCCN1CCN(c2nsc3ccccc23)CC1` [PEROSPIRONE]: the AC50 in assay [1] was more than 30 µM; in assay [2], 3.31 µM; in assay [3], more than 30 µM; in assay [4], more than 30 µM; in assay [5] it was 2.98 µM; in [6], 0.22 µM. For the same compound, the concentration at half-maximal activity (AC50) in [7] is more than 30 µM; in assay [8], 0.003 µM; in assay [9], 0.054 µM; in assay [10] it was more than 30 µM; in assay [11], more than 30 µM; in assay [12], more than 30 µM. Besides, the AC50 in [13] is 7.34 µM; in assay [14] it was 7.44 µM; in assay [15], 0.003 µM.
For `CN(C)CCC(c1ccccc1)c1ccccn1` (stereo not given) [PHENIRAMINE], the AC50 is more than 30 µM in assay [1]; more than 30 µM in assay [2]; more than 30 µM in [3]; more than 30 µM in assay [4]; 26.3 µM in assay [5]; more than 30 µM in assay [6]. Moreover, the AC50 in assay [7], in assay [8], in assay [9], in assay [10], in assay [11] and in [12] was more than 30 µM in each case. For the same compound, the AC50 in [13] is 24.7 µM; in assay [14], more than 30 µM; in assay [15] it was more than 30 µM.

The values above are taken from ChEMBL document CHEMBL5291721, “A preclinical secondary pharmacology resource illuminates target-adverse drug reaction associations of marketed drugs” (Nat Commun, 2023).
